≈ marks a conversion by molar mass, not a printed value. One block for each molecule: values may come before it.
How the values were obtained:
Assay in all cases: ≥ marks a high value that may be exact or a test limit, other limits are often not marked, values filed in µg/mL are converted to µM
[1] = system: Escherichia coli ATCC 25922
[2] = system: Klebsiella pneumoniae ATCC 13883
[3] = system: Listeria monocytogenes ATCC 19115
[4] = system: Salmonella enterica subsp. enterica serovar Typhimurium ATCC 14028
[5] = system: Salmonella enterica subsp. enterica serovar Typhimurium ATCC 700408
[6] = system: Staphylococcus aureus ATCC 25923
[7] = system: Staphylococcus aureus ATCC 43300
[8] = system: Staphylococcus aureus ATCC BAA-39
Bacillus cereus = system: Bacillus cereus
[9] = system: Batrachochytrium dendrobatidis
Escherichia coli = system: Escherichia coli
Leuconostoc lactis = system: Leuconostoc lactis
Listeria innocua = system: Listeria innocua
Micrococcus luteus = system: Micrococcus luteus
Pasteurella multocida = system: Pasteurella multocida
Staphylococcus aureus = system: Staphylococcus aureus
[10] = system: Staphylococcus epidermidis
Streptococcus uberis = system: Streptococcus uberis
[11] = system: Bacillus subtilis AB91021
[12] = system: Bacillus thuringiensis AB92037
Escherichia coli AB94012 = system: Escherichia coli AB94012
Escherichia coli D31 = system: Escherichia coli D31
[13] = system: Listeria fleischmannii DSM 24998
Listeria grayi DSM 20601 = system: Listeria grayi DSM 20601
[14] = system: Listeria monocytogenes DSM 20600
[15] = system: Micrococcus luteus AB93113
[16] = system: Micrococcus luteus DSM 20030
[17] = system: Pseudomonas aeruginosa AB93066
[18] = system: Staphylococcus aureus AB94004
[19] = system: Staphylococcus aureus DSM 2569
[20] = system: Staphylococcus aureus P1369
[21] = system: Staphylococcus aureus P1374
[22] = system: Staphylococcus aureus P1381
[23] = system: Staphylococcus aureus P1383
[24] = system: Staphylococcus aureus P1386
[25] = system: Staphylococcus epidermidis P1111
[26] = system: Staphylococcus epidermidis P1389

- MIC [1]: 9.29 µM (≈ 25 µg/mL)
- MIC [2]: 9.29 µM (≈ 25 µg/mL)
- MIC [3]: 9.29 µM (≈ 25 µg/mL)
- MIC [4]: 9.29 µM (≈ 25 µg/mL)
- MIC [5]: 9.29 µM (≈ 25 µg/mL)
- MIC [6]: 37.1 µM (≈ 100 µg/mL)
- MIC [7]: 37.1 µM (≈ 100 µg/mL)
- MIC [8]: ≥ 37.1 µM
Structure (SMILES): CC(C)C[C@H](NC(=O)[C@H](CCCN=C(N)N)NC(=O)CNC(=O)[C@H](CCC(N)=O)NC(=O)[C@@H]1CCCN1C(=O)[C@H](CC(C)C)NC(=O)[C@H](CCCCN)NC(=O)[C@H](Cc1ccccc1)NC(=O)[C@@H](NC(=O)[C@@H]1CCCN1C(=O)[C@H](CCC(N)=O)NC(=O)[C@H](CO)NC(=O)[C@H](Cc1ccccc1)NC(=O)[C@H](CCCN=C(N)N)NC(=O)[C@@H](N)CCC(N)=O)[C@@H](C)O)C(=O)N[C@H](C(=O)N[C@@H](CC(C)C)C(=O)N[C@@H](CO)C(=O)N[C@@H](CCCN=C(N)N)C(=O)N[C@@H](CCCCN)C(=O)N[C@@H](Cc1ccccc1)C(=O)N[C@@H](CCCN=C(N)N)C(=O)O)[C@@H](C)O [QRFSQPTFKLPQGRLTLSRKFR]

- MIC (Bacillus cereus): ≥ 42.9 µM
- MIC [9]: ≥ 200 µM
- MIC (Escherichia coli): 10.7 µM (≈ 25 µg/mL)
- MIC (Leuconostoc lactis): ≥ 42.9 µM
- MIC (Listeria innocua): ≥ 42.9 µM
- MIC (Micrococcus luteus): 5.15 µM (≈ 12 µg/mL)
- MIC (Pasteurella multocida): ≥ 42.9 µM
- MIC (Staphylococcus aureus): > 42.9 µM
- MIC [10]: ≥ 42.9 µM
- MIC (Streptococcus uberis): ≥ 42.9 µM
Structure (SMILES): CC[C@H](C)[C@H](NC(=O)CNC(=O)[C@H](CCC(=O)O)NC(=O)[C@@H](NC(=O)[C@@H](NC(=O)CNC(=O)[C@H](CO)NC(=O)[C@H](C)NC(=O)[C@H](CC(C)C)NC(=O)[C@H](CC(=O)O)NC(=O)CNC(=O)[C@H](C)NC(=O)[C@H](C)NC(=O)[C@H](CO)NC(=O)[C@H](CCCCN)NC(=O)[C@@H](NC(=O)[C@H](CCCCN)NC(=O)[C@H](CCC(N)=O)NC(=O)[C@H](Cc1c[nH]c2ccccc12)NC(=O)[C@H](CC(C)C)NC(=O)CN)[C@@H](C)CC)[C@@H](C)CC)C(C)C)C(=O)N[C@@H](CCCCN)C(=O)N[C@@H](CO)C(N)=O [GLWQKIKSAAGDLASGIVEGIKS]

- MIC [11]: 15.8 µM (≈ 25 µg/mL)
- MIC [12]: 31.7 µM (≈ 50 µg/mL)
- MIC (Escherichia coli AB94012): 31.7 µM (≈ 50 µg/mL)
- MIC (Escherichia coli D31): 15 µM (≈ 23.7 µg/mL)
- MIC [13]: 4 µM (≈ 6.31 µg/mL)
- MIC (Listeria grayi DSM 20601): 4 µM (≈ 6.31 µg/mL)
- MIC [14]: 8 µM (≈ 12.6 µg/mL)
- MIC [15]: 15.8 µM (≈ 25 µg/mL)
- MIC [16]: 2 µM (≈ 3.15 µg/mL)
- MIC [17]: ≥ 63.4 µM
- MIC [18]: 3.96 µM (≈ 6.25 µg/mL)
- MIC [19]: 15 µM (≈ 23.7 µg/mL)
- MIC [20]: 3.96 µM (≈ 6.25 µg/mL)
- MIC [21]: 3.96 µM (≈ 6.25 µg/mL)
- MIC [22]: 15.8 µM (≈ 25 µg/mL)
- MIC [23]: 7.92 µM (≈ 12.5 µg/mL)
- MIC [24]: 7.92 µM (≈ 12.5 µg/mL)
- MIC [25]: 3.96 µM (≈ 6.25 µg/mL)
- MIC [26]: 7.92 µM (≈ 12.5 µg/mL)
Structure (SMILES): CC[C@H](C)[C@H](NC(=O)[C@H](C)NC(=O)[C@H](CO)NC(=O)[C@H](CCCCN)NC(=O)[C@@H](NC(=O)CNC(=O)[C@H](CCC(=O)O)NC(=O)[C@H](Cc1c[nH]c2ccccc12)NC(=O)[C@H](CC(C)C)NC(=O)[C@H](CCCCN)NC(=O)CNC(=O)[C@H](Cc1c[nH]c2ccccc12)NC(=O)[C@H](Cc1ccccc1)NC(=O)CN)C(C)C)C(N)=O [GFWGKLWEGVKSAI]

From DBAASP
